Measured values from PubChem BioAssay AID504363 (Southern Research Specialized Biocontainment Screening …, 2011).
pIC50: −log10 of the molar value. Active and inactive are the calls of the source.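 How the source made its calls: active means compound cutting virus infection of reporter cells by half or more at some tested dose; inactive means the rest.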

These compounds were tested on MAGI-CCR5 HeLa cells, HIV-1 IIIB, beta-gal luminescence, 48 h (assay: X4 HIV-1 replication inhibitors in MAGI cells, dose response, MAGI-CCR5 cells, beta-gal luminescence, 2% serum (AID 504363)).

Compound | pIC50 | IC50
COc1ccccc1Cn1c(O)cc2nn(-c3nc4ccccc4s3)c(=O)c-2c1C | 5.59 | –
Cc1c2c(=O)n(-c3nc4ccccc4s3)nc-2cc(O)n1CCC(C)C | 5.60 | –
Cc1ccc(-n2cccc2/C=C2/C(=N)N3C(=NC2=O)SN=C3S(C)(=O)=O)cc1C | 4.45 | –
CCOC(=O)C1=C(C)N=c2sc(=Cc3ccc(OCC(=O)O)cc3)c(=O)n2C1c1ccc(F)cc1 (stereo not drawn) | 4.54 | –
CS(=O)(=O)C1=NSC2=NC(=O)/C(=C\c3cccn3-c3cccc(Cl)c3)C(=N)N21 | 4.45 | –
O=C(O)CCC(C(=O)O)N1C(=O)/C(=C\c2ccco2)SC1=S (stereo not drawn) | – | > 100 µM (inactive)
Cc1c2c(=O)n(-c3nc4ccccc4s3)nc-2cc(O)n1Cc1ccc(F)cc1 | 5.58 | –
O=C(O)CCCN1C(=O)/C(=C\c2ccc(-c3cccc(Cl)c3)o2)SC1=S | 4.54 | –
Cc1c2c(=O)n(-c3nc4ccccc4s3)nc-2cc(O)n1CCc1ccc(O)cc1 | 5.33 | –
CS(=O)(=O)C1=NSC2=NC(=O)/C(=C\c3cccn3-c3cccc(F)c3)C(=N)N21 | 4.43 | –
Cc1c2c(=O)n(-c3nc4ccccc4s3)nc-2cc(O)n1Cc1ccccc1Cl | 5.38 | –
CCc1ccc(-c2ccc(/C=C3\SC(=S)N(CCCC(=O)O)C3=O)o2)cc1 | 4.83 | –
COc1ccccc1NS(=O)(=O)c1ccc2c(c1)C1C=CCC1C(c1ccc(C(=O)O)cc1)N2 (stereo not drawn) | 5.41 | –
CCOC(=O)C1=C(C)N=c2sc(=Cc3ccc(OCC(=O)O)cc3)c(=O)n2C1c1ccc(OC)cc1OC (stereo not drawn) | 4.47 | –
Cc1c2c(=O)n(-c3nc4ccccc4s3)nc-2cc(O)n1C1CC1 | 5.97 | –
CS(=O)(=O)C1=NSC2=NC(=O)/C(=C\c3cccn3-c3ccc(Cl)c(Cl)c3)C(=N)N21 | 4.47 | –
O=C(O)c1ccc([C@@H]2Nc3ccc(S(=O)(=O)Nc4cccc5ccccc45)cc3[C@@H]3C=CC[C@@H]32)cc1 | 4.96 | –
Cc1ccc(-c2ccc(/C=C3\SC(=S)N(CCCC(=O)O)C3=O)o2)cc1 | 4.69 | –
O=C(O)CCCN1C(=O)/C(=C/c2cc3ccccc3o2)SC1=S | 4.61 | –
CCOC(=O)C1=C(C)N=c2s/c(=C\c3ccc(OCC(=O)O)cc3)c(=O)n2C1c1ccc(Cl)cc1 (stereo not drawn) | 4.61 | –
Nc1sc2ccccc2[n+]1Cc1ccc(C(=O)O)cc1 | – | > 100 µM (inactive)
COc1ccc(-c2ccc(/C=C3\SC(=S)N(CCCC(=O)O)C3=O)o2)cc1 | 4.59 | –
CCOC(=O)C1=C(C)N=c2sc(=Cc3ccc(OCC(=O)O)cc3)c(=O)n2C1c1ccccc1OC (stereo not drawn) | 4.46 | –
CS(=O)(=O)C1=NSC2=NC(=O)/C(=C\c3cccn3-c3ccc(Br)cc3)C(=N)N21 | 4.46 | –
COc1ccc(Cn2c(O)cc3nn(-c4nc5ccccc5s4)c(=O)c-3c2C)cc1 | 5.51 | –
COc1cccc(C2C(C(=O)Nc3ccccc3)=C(C)N=c3sc(=Cc4ccc(OCC(=O)O)cc4)c(=O)n32)c1 (stereo not drawn) | 4.40 | –
CCOC(=O)C1=C(C)N=c2sc(=Cc3ccc(OCC(=O)O)cc3)c(=O)n2C1c1cc(OC)c(OC)c(OC)c1 (stereo not drawn) | 4.04 | –

Compound | pIC50 | IC50
COc1ccc(CCn2c(O)cc3nn(-c4nc5ccccc5s4)c(=O)c-3c2C)cc1 | 4.69 | –
CCOC(=O)C1=C(c2ccccc2)N=c2s/c(=C\c3ccc(OCC(=O)O)cc3)c(=O)n2C1c1cccc(OC)c1 (stereo not drawn) | 4.97 | –
CC1=C(C(=O)OC(C)C)C(c2ccc(Cl)cc2)n2c(s/c(=C\c3ccc(OCC(=O)O)cc3)c2=O)=N1 (stereo not drawn) | – | > 100 µM (inactive)
O=C(O)CCCN1C(=O)/C(=C/c2ccc(-c3cccc(C(F)(F)F)c3)o2)SC1=S | 4.63 | –
O=C(O)c1ccc(C[n+]2c(-c3ccc([N+](=O)[O-])cc3)csc2Nc2ccccc2)cc1 | 4.50 | –
CCOC(=O)C1=C(C)N=c2s/c(=C\c3ccc(OCC(=O)O)cc3)c(=O)n2C1c1ccc(OC)c(OCC)c1 (stereo not drawn) | 4.52 | –
O=C(O)CCCN1C(=O)/C(=C\c2ccc(-c3ccc(Br)cc3)o2)SC1=S | 4.42 | –
COc1ccc(-n2cccc2/C=C2/C(=N)N3C(=NC2=O)SN=C3S(C)(=O)=O)cc1Cl | 4.43 | –
Cc1c2c(=O)n(-c3nc4ccccc4s3)nc-2cc(O)n1Cc1cccs1 | 5.49 | –
Cc1c2c(=O)n(-c3nc4ccccc4s3)nc-2cc(O)n1Cc1cccnc1 | 5.55 | –
CS(=O)(=O)C1=NSC2=NC(=O)/C(=C\c3cccn3-c3ccc(F)cc3)C(=N)N21 | 4.46 | –
O=C(O)c1ccc(C2Nc3ccc(S(=O)(=O)Nc4cc(Cl)ccc4Cl)cc3C3C=CCC32)cc1 (stereo not drawn) | 4.80 | –
CS(=O)(=O)C1=NSC2=NC(=O)/C(=C\c3cccn3-c3cc(Cl)cc(Cl)c3)C(=N)N21 | 4.46 | –
O=C(O)c1ccc(C[n+]2c(-c3ccccc3)csc2Nc2ccccc2)cc1 | 4.27 | –
CCc1ccc(-n2cccc2/C=C2/C(=N)N3C(=NC2=O)SN=C3S(C)(=O)=O)cc1 | 4.50 | –
Cc1c2c(=O)n(-c3nc4ccccc4s3)nc-2cc(O)n1CCc1cccs1 | 5.43 | –
CS(=O)(=O)C1=NSC2=NC(=O)/C(=C\c3cccn3-c3ccc(Cl)cc3)C(=N)N21 | 4.44 | –
O=C(O)CCCN1C(=O)/C(=C\c2ccc(-c3ccc(F)cc3)o2)SC1=S | 4.69 | –
COc1cccc(-n2cccc2/C=C2/C(=N)N3C(=NC2=O)SN=C3S(C)(=O)=O)c1 | 4.50 | –
Cc1ccc(-n2cccc2/C=C2/C(=N)N3C(=NC2=O)SN=C3S(C)(=O)=O)cc1 | 4.46 | –
O=C(O)CCCN1C(=O)/C(=C/c2ccc(-c3ccc(Cl)c(Cl)c3)o2)SC1=S | 4.70 | –
CS(=O)(=O)C1=NSC2=NC(=O)/C(=C\c3cccn3-c3cccc(C(F)(F)F)c3)C(=N)N21 | 4.47 | –
Cc1c2c(=O)n(-c3nc4ccccc4s3)nc-2cc(O)n1Cc1ccncc1 | 5.35 | –
CCOC(=O)C1=C(C)N=c2sc(=Cc3ccc(OCC(=O)O)cc3)c(=O)n2C1c1ccccc1 (stereo not drawn) | 4.46 | –
CCOc1ccc(-n2cccc2/C=C2/C(=N)N3C(=NC2=O)SN=C3S(C)(=O)=O)cc1 | 4.46 | –
O=C(O)CCCN1C(=O)/C(=C\c2ccc(-c3ccc(Cl)cc3)o2)SC1=S | 4.82 | –
